The results in this text go back to article PMC8286840, “Identifying SARS-CoV-2 antiviral compounds by screening for small molecule inhibitors of Nsp3 papain-like protease” (Biochemical Journal, 2021).

Counter-ions that a name gives are not always drawn. Like-named read-outs stand apart in the source and are kept apart here.

For experiment [1], the target named is T1, SARS-CoV-2 PLpro (nsp3 1564–1878) (Severe acute respiratory syndrome coronavirus 2, UniProt P0DTD1). Put plainly: biochemical. More on the design: FRET-quenched peptide (Pro3) cleavage by PLpro, 10 min pre-incubation, slope over 20 min, normalised to no-compound control. Conditions: low concentration screen, read-out: % of control remaining.
Experiment [2] has as its target T1, SARS-CoV-2 PLpro (nsp3 1564–1878). Put plainly: biochemical. Details: FRET-quenched peptide (Pro3) cleavage by PLpro, 10 min pre-incubation, slope over 20 min, normalised to no-compound control. The following applies: high concentration screen, read-out: % of control remaining.

Regarding `CCCCN1CCC(COC(=O)c2cc(Cl)c(N)c3c2OCCO3)CC1` [SB 204070 hydrochloride], the remaining activity at 1.25 µM in experiment [1] (Well no.=1170) was determined as 97.3%. Besides, in experiment [2] (Well no.=1170), the remaining activity at 3.75 µM worked out at 99.4%.

Consider `CC#CCOC(=O)c1c(C)nc2sc3c(c2c1N)CCC(O)C3` (stereo not drawn) [SB 205384], for which the remaining activity at 1.25 µM in experiment [1] (Well no.=1508) was found to be 97.4%. The remaining activity at 3.75 µM in experiment [2] (Well no.=1508) is 96.2%.

For the compound `Cn1ccc2cc3c(cc21)CCN3C(=O)Nc1cccnc1` [SB 206553 hydrochloride], the remaining activity at 1.25 µM in experiment [1] (Well no.=1375) worked out at 99.8%. The remaining activity at 3.75 µM in experiment [2] (Well no.=1375) amounted to 101%.

Take `Cn1cc(C2=C(c3ccc(Cl)cc3Cl)C(=O)NC2=O)c2ccccc21` [SB 216763 - 3-(2,4-Dichlorophenyl)-4-(1-methyl-1H-indol-3-yl)-1H-pyrrole-2,5-dione]: in experiment [1] (Well no.=2442), the remaining activity at 1.25 µM was 96.9%. Further, the remaining activity at 3.75 µM in experiment [2] (Well no.=2442) was 100%.

Turning to `O=C1NC(=O)c2c1c1c3ccccc3n3c1c1c2c2ccccc2n1[C@H]1CC[C@@H]3O1` [SB 218078], the remaining activity at 1.25 µM in experiment [1] (Well no.=2648) came out at 92.1%. Moreover, the remaining activity at 3.75 µM in experiment [2] (Well no.=2648) was found to be 94.3%.

Take `Cc1nc(-c2ccc(-c3ccc(C(=O)N4CCc5cc6c(cc54)C4(CCN(C)CC4)CO6)cc3)c(C)c2)no1` [SB 224289 hydrochloride]: the remaining activity at 1.25 µM in experiment [1] (Well no.=1423) is 96.6%. The remaining activity at 3.75 µM in experiment [2] (Well no.=1423) came to 97.3%.

For the compound `COc1nccc(-c2c(-c3ccc(F)cc3)ncn2[C@H]2CC[C@H](O)CC2)n1` [SB 239063 - trans-4-[4-(4-Fluorophenyl)-5-(2-methoxy-4-pyrimidinyl)-1H-imidazol-1-yl]cyclohexanol], in experiment [1] (Well no.=2478), the remaining activity at 1.25 µM is 98.8%. Further, the remaining activity at 3.75 µM in experiment [2] (Well no.=2478) worked out at 98.4%.

`COc1nccc(-c2c(-c3ccc(F)cc3)ncn2[C@H]2CC[C@H](O)CC2)n1` [SB 239063]: the remaining activity at 1.25 µM in experiment [1] (Well no.=2667) was 93%. In experiment [2] (Well no.=2667), the remaining activity at 3.75 µM was found to be 98%.

Take `Cc1cc2c(cc1Cl)N(C(=O)Nc1ccc(Oc3cccnc3C)nc1)CC2` [SB 242084 dihydrochloride]: in experiment [1] (Well no.=1222), the remaining activity at 1.25 µM stood at 102%. The remaining activity at 3.75 µM in experiment [2] (Well no.=1222) amounted to 102%.

As to `CC1CCN(CC[C@H]2CCCN2S(=O)(=O)c2cccc(O)c2)CC1` [SB 269970 hydrochloride], the remaining activity at 1.25 µM in experiment [1] (Well no.=1220) was 102%. Besides, in experiment [2] (Well no.=1220), the remaining activity at 3.75 µM was 104%.

With `COc1ccc(NS(=O)(=O)c2sc3ccc(Cl)cc3c2C)cc1N1CCNCC1` [SB 271046 (Hydrochloride)], the remaining activity at 1.25 µM in experiment [1] (Well no.=7863) turned out to be 102%. The remaining activity at 3.75 µM in experiment [2] (Well no.=7863) is 101%.

Take `COc1ccc(NS(=O)(=O)c2sc3ccc(Cl)cc3c2C)cc1N1CCNCC1` [SB 271046]: the remaining activity at 1.25 µM in experiment [1] (Well no.=4934) was determined as 94.2%. Further, the remaining activity at 3.75 µM in experiment [2] (Well no.=4934) is 92.4%.

Consider `CCOC(=O)[C@H](Cc1ccc([N+](=O)[O-])cc1)NC(=O)c1ccccc1` [SB 297006], for which the remaining activity at 1.25 µM in experiment [1] (Well no.=5801) turned out to be 98.7%. Moreover, the remaining activity at 3.75 µM in experiment [2] (Well no.=5801) came to 98.4%.

Consider `COC(=O)[C@H](Cc1ccc([N+](=O)[O-])cc1)NC(=O)c1cccc2ccccc12` [SB 328437], for which the remaining activity at 1.25 µM in experiment [1] (Well no.=5812) worked out at 94.2%. Also, the remaining activity at 3.75 µM in experiment [2] (Well no.=5812) worked out at 93.4%.

Take `NC(=O)c1ccc(-c2nc(-c3ccccn3)c(-c3ccc4c(c3)OCO4)[nH]2)cc1` [SB 431542 - 4-[4-(1,3-benzodioxol-5-yl)-5-(2-pyridinyl)-1H-imidazol-2-yl]benzamide]: the remaining activity at 1.25 µM in experiment [1] (Well no.=2440) was found to be 106%. In addition, the remaining activity at 3.75 µM in experiment [2] (Well no.=2440) amounted to 107%.

As to `Cc1cccc(-c2[nH]c(C(C)(C)C)nc2-c2ccc3nccnc3c2)n1` [SB 525334], in experiment [1] (Well no.=4901), the remaining activity at 1.25 µM was 99.5%. For the same compound, in experiment [2] (Well no.=4901), the remaining activity at 3.75 µM is 99.1%.

For the compound `Cc1ccc(C(=O)N(CCCN)[C@@H](c2oc3cc(Cl)ccc3c(=O)c2Cc2ccccc2)C(C)C)cc1` [SB 743921], in experiment [1] (Well no.=4812), the remaining activity at 1.25 µM was 97.2%. Further, the remaining activity at 3.75 µM in experiment [2] (Well no.=4812) stood at 100%.

With `O=S(=O)(CC1CS1)c1ccc(Oc2ccccc2)cc1` (stereo not drawn) [SB-3CT], the remaining activity at 1.25 µM in experiment [1] (Well no.=8478) was 95.9%. Besides, the remaining activity at 3.75 µM in experiment [2] (Well no.=8478) amounted to 91.4%.
